Source: paper PMC11094663 (Journal of ethnopharmacology, 2022)
Where two headings read alike, the source gives them in different places.

Key:
[1] = target: T1, pregnane X receptor (PXR) (Homo sapiens, UniProt O75469); format: cell-based; conditions: for Fold induction in PXR activity: HepG2, 24 h, mean ± SD, NA = No activation
T1 sequence (O75469 1-434): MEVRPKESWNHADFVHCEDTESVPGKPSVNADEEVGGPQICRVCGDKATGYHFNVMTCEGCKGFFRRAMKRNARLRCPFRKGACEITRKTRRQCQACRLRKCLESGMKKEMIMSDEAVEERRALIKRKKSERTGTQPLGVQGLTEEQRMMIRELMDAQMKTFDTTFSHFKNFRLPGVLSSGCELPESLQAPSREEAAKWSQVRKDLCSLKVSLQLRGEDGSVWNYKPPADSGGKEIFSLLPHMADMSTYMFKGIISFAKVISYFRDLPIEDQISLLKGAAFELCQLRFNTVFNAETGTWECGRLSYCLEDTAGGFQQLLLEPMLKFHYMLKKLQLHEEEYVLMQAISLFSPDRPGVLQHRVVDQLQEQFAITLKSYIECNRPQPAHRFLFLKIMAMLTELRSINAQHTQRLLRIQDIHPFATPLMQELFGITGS

CYP3A4 = CYP3A4 (Homo sapiens, UniProt P08684); assay: Cytochrome P450; conditions: for CYP 3A4 Inhibition - IC50: 15 min incubation, 37 °C, mean ± SD of three experiments
CYP3A4, sequence (P08684 whole entry): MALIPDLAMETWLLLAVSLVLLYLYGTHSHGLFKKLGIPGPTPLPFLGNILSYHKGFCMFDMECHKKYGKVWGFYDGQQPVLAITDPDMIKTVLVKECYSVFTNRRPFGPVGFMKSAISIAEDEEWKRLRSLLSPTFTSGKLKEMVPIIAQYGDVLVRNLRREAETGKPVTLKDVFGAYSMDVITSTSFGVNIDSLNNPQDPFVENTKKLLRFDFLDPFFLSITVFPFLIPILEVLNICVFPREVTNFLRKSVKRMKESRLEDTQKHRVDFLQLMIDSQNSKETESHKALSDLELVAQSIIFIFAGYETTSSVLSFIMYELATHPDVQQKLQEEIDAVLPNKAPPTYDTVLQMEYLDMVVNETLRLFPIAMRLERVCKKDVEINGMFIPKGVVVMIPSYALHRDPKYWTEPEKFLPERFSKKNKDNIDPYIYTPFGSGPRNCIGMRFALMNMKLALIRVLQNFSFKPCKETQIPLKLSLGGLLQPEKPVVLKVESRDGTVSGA

| Compound | Fold induction in PXR activity ([1]; compounds at 12.5 μg/mL) | Fold induction in PXR activity ([1]; compounds at 25 μg/mL) | Fold induction in PXR activity ([1]; compounds at 50 μg/mL) | CYP 3A4 Inhibition - IC50 (CYP3A4) | further results |
| --- | --- | --- | --- | --- | --- |
| CO[C@H]1/C=C/O[C@@]2(C)Oc3c(C)c(O)c4c(O)c(c(/C=N/N5CCN(C)CC5)c(O)c4c3C2=O)NC(=O)/C(C)=C\C=C\[C@H](C)[C@H](O)[C@@H](C)[C@@H](O)[C@@H](C)[C@H](OC(C)=O)[C@@H]1C [Rifampicin, reference compound] |  |  |  |  | fold induction at 24 h, 5 µM ([1]; human): 3.24 ± 0.15; fold induction at 24 h, 10 µM ([1]; human): 3.25 ± 0.08 |
| cordifoliside C | 1.22 ± 0.06 fold | 1.47 ± 0.03 fold | 1.95 ± 0.04 fold |  |  |
| baenzigeride A | 1.18 ± 0.09 fold | 1.54 ± 0.16 fold | 1.96 ± 0.16 fold |  |  |
| C[C@@]12C[C@@H](c3ccoc3)OC(=O)[C@@H]1CC[C@]1(C)[C@H]2[C@@H]2C=C[C@@]1(O)C(=O)O2 [Columbin, columbin] |  | 2.89 ± 0.62 fold | 3.58 ± 0.61 fold |  | PXR activation (fold) ([1]; concentration not given): 3 fold |
| COC(=O)C1=CCCC2C3(C)CC(c4ccoc4)OC(=O)C3=CC(OC3OC(CO)C(O)C(O)C3O)C12C (stereo not shown) [Borapetoside F, borapetoside F] |  |  |  | 13.00 ± 0.82 µg/mL |  |
| COc1cc(/C=C/CO)cc(OC)c1O[C@@H]1O[C@H](CO)[C@@H](O)[C@H](O[C@@H]2OC[C@](O)(CO)[C@H]2O)[C@H]1O [Tinosinen, tinosinen] | 1.48 ± 0.06 fold | 1.67 ± 0.02 fold | 1.42 ± 0.06 fold | >100 µg/mL |  |
| COC(=O)C1=CCC[C@H]2[C@]3(C)C[C@@H](c4ccoc4)OC(=O)[C@@H]3C[C@@H](O[C@@H]3O[C@H](CO)[C@@H](O)[C@H](O)[C@H]3O)[C@@]12C [Borapetoside C, borapetoside C] |  |  |  |  | IC50 (CYP3A4): 69.9 µM |
| COC(=O)C1=C[C@H](O)C[C@H]2[C@]3(C)C[C@@H](c4ccoc4)OC(=O)[C@H]3C[C@H](O[C@@H]3O[C@H](CO)[C@@H](O)[C@H](O)[C@H]3O)[C@@]12C [Borapetoside B, borapetoside B] |  |  |  |  | IC50 (CYP3A4): 181 µM |
| COc1cc2c(cc1OC)-c1cc3ccc(OC)c(OC)c3c[n+]1CC2 [Palmatine, palmatine] | 1.08 ± 0.00 fold | 1.30 ± 0.00 fold | 1.43 ± 0.00 fold | 34.00 ± 0.00 µg/mL |  |
| CC(=O)O[C@@H]1[C@@H]2[C@H](CC[C@@]3(O)C(=O)O[C@H](c4ccoc4)C[C@@]23C)[C@H](O[C@@H]2O[C@H](CO)[C@@H](O)[C@H](O)[C@H]2O)C[C@@H]1O [Tinosineside A, tinosineside A] | 1.42 ± 0.06 fold | 1.50 ± 0.00 fold | 1.53 ± 0.11 fold | 45.00 ± 5.72 µg/mL |  |
| COC(=O)C1=C[C@H](O)C[C@H]2[C@]3(C)C[C@@H](c4ccoc4)OC(=O)[C@@H]3C[C@@H](O[C@@H]3O[C@H](CO)[C@@H](O)[C@H](O)[C@H]3O)[C@@]12C [(2R,5R,6R,8R,9S, 10S,12S)-15,16-epoxy-2-hydroxy-6-O-(β-D-glucopyranosyl)-cleroda-3, 13(16),14-trien-17,12-olid-18-oicacidmethyl ester] | 0.93 ± 0.04 fold | 1.01 ± 0.13 fold | 1.39 ± 0.11 fold | 29.00 ± 0.82 µg/mL |  |
| C=C(CC[C@@H](C)[C@H]1CC[C@@]2(C)[C@@H]3CC[C@H]4[C@H](C)[C@@H](O)CC[C@@]45C[C@@]35CC[C@]12C)C(C)C [Cycloeucalenol, cycloeucalenol] |  |  |  |  | fold induction at 24 h, 12.5 μg/mL ([1]; human): 1.42 ± 0.06; fold induction at 24 h, 25 μg/mL ([1]; human): 1.91 ± 0.23; fold induction at 24 h, 50 μg/mL ([1]; human): 2.42 ± 0.3 |
| COc1cc(/C=C/C(=O)NCCc2ccc(O)cc2)ccc1O [N-trans-feruloyl tyramine] |  |  |  |  | fold induction at 24 h, 12.5 μg/mL ([1]; human): 1.59 ± 0.07; fold induction at 24 h, 25 μg/mL ([1]; human): 2.16 ± 0.27; fold induction at 24 h, 50 μg/mL ([1]; human): 2.29 ± 0.41; IC50 (CYP3A4): 8.62 µM |
| tinosposinoside | 1.30 ± 0.08 fold | 1.55 ± 0.08 fold | 1.52 ± 0.15 fold |  |  |
